Series [1] in a line: Hydrolytic stability in human liver microsomes (HLM). The format is in vitro ADME. The settings on record: for Residual substrate percentage, HLM: human liver microsomes 1.0 mg/mL protein, substrate 10 μM, 37 °C; for Residual substrate percentage, HLM / Hydrolytic stability in human liver microsomes (in words): 30 min; for Hydrolytic stability toward esterases (in words): liver microsomes, species stated only for the stable ester (human liver). The procedure: This was made in light of the fact that the overall metabolizing capability of murine hepatic enzymes, including carboxylesterases, is supposed to be higher compared to the human ones.[17]
(§1) Hydrolytic stability in MLM and HLM
(§2) The standard incubation mixture (200 µL final volume) was carried out in a 50 mM TRIS-HCl buffer (pH 7.4) containing 150 mM KCl, tween 80 as cosolvent (0.8 mg/mg protein), and the substrate (10 μM). After pre-equilibration of the mixture, an appropriate volume of MLM or HLM suspension was added to give a final protein concentration of 1.0 mg/mL. The mixture was shaken for 30 minutes at 37 °C. Control incubations were carried out without the presence or microsomes or in pure acetonitrile. Each incubation was stopped by the addition of 200 µL ice-cold acetonitrile, vortexed and centrifuged at 13000 rpm for 5 min. The supernatants were analyzed by LC-HRMS. […]

Series [2] is described as follows: Hydrolytic stability in mouse liver microsomes (MLM). The settings on record: 30 min; for Residual substrate percentage, MLM: mouse liver microsomes 1.0 mg/mL protein, substrate 10 μM, 37 °C. The format is in vitro ADME. How it is done: (§3) For all 43 compounds, a first evaluation of their chemical and metabolic stabilities toward hydrolysis was performed by incubating them in buffer under physiological conditions (50 mM Tris-HCl, pH 7.4) and in mouse liver microsomes (Table 1). This model was chosen because, similar to the human liver, both of the carboxylesterase isoforms are present. […] A more interesting trend was instead possible to observe with benzoic acids.
as §1, §2
On the technique in general: Liver microsomes are a subcellular fraction often used to study metabolism.

The nature of series [3]: Hydrolytic (chemical) stability in Tris-HCl buffer pH 7.4. The format is physicochemical. The settings on record: 50 mM Tris-HCl buffer pH 7.4, incubation 30 min, without microsomes. The procedure:
as §3, §1, §2

The nature of series [4]: Hydrolytic stability in human plasma. The format is in vitro ADME. The settings on record: substrate 10 μM, 30 min, 37 °C. The procedure:
As a final point, for some of the compounds characterized by the best hepatic stability, we also evaluated them in human plasma (Table 2) and under acidic and alkaline conditions (see the Supporting Information), the latter to ascertain the stability of α-acyloxy carboxamides in the gastrointestinal tract. […] Once again, the ortho,ortho′-disubstitution of the aromatic ring is the one that gives the best metabolic stability. […]
Hydrolytic stability in human plasma
The standard incubation mixture (100 μL final volume) was carried out by dissolving the tested substrate compounds (10 μM) in DMSO (5% final volume) in preincubated plasma at 37 °C. The mixture was shaken for 30 min at 37 °C. Control incubations were carried out without substrate. Each incubation was stopped by addition of 200 μL of ice-cold acetonitrile, vortexed, and centrifuged at 13000 rpm for 10 min. The supernatants were analyzed by LC-HRMS. […]

Series [5] has as its system P. aeruginosa ATCC 9027. Kind of series: Antibacterial activity, agar well-diffusion method. The format is cell-based, Pseudomonas aeruginosa. The settings on record: for Inhibition zone: P. aeruginosa ATCC 9027, 1 mg/mL in DMSO, 55 μL per 6 mm well, 24 h at 37 °C, average ± SD; for Antibacterial activity (in words): P. aeruginosa ATCC 9027, 1 mg/mL. The source says: Recently an article presented the synthesis of 1,3-phenylenebis(2-(cyclohexylamino)-2-oxoethane-1,1-diyl) dibenzoate (99) (Figure 6), obtained with a double Passerini reaction starting from 1,3-benzenedicarbaldehyde. […] According to our studies, compounds 99 is expected to suffer from metabolic instability, whereas the new analogue 100 designed by us (Figure 6), containing methyl groups at the two ortho positions in each benzoate group, should be metabolically stable. We then synthesized the two compounds and evaluated their antibacterial activities on P. aeruginosa and their hydrolytic stabilities. The in vitro antibacterial activities of 99 and 100 were evaluated against the P. aeruginosa ATCC 9027 strain. […] No inhibition halos were observed around the wells containing DMSO alone.
The in vitro antibacterial activity of the compounds was assayed against the Gram-negative P. aeruginosa
ATCC 9027 by the agar well-diffusion method. Compounds 99, 100, and gentamycin were dissolved in
DMSO (Scharlab, Barcelona, ES) and tested at the concentration of 1 mg/mL. For comparison, gentamycin
was used as a negative control of growth and DMSO as positive control of growth. The strain, obtained from
the American Type Culture Collection (ATCC, Manassas, VA, United States) and stored at −80 °C in Brain
Heart Infusion (Scharlab, Barcelona, ES) with 25% glycerol (Scharlab, Barcelona, ES), was cultured onto
Tryptic Soy Agar (Scharlab, Barcelona, ES) at 37°C for 16 h.
A bacterial suspension (ca. 1.5×10^8 Colony Forming Unit per ml) was prepared in isotonic saline solution
(NaCl 0,9%) and spread onto Muller-Hinton agar (Scharlab, Barcelona, ES) surfaces using a sterile swab.
Wells (6 mm diameter) were punched using a sterile punch cutter and filled with 55 μL of each sample. Plates
were left at room temperature for 1h to allow each sample to diffuse into the agar and then incubated at 37 °C
for 24 h. Finally, the inhibition zone diameters were measured.
The assay was carried out in triplicate and repeated twice. Results were expressed as average values ± standard
A general note: In agar diffusion tests the substance spreads into inoculated agar from a disc or well.

For series [6], the system named is Pseudomonas aeruginosa. The arrangement: method as in doi:10.1155/2013/125959. The settings on record: mixture of two enantiomers and a meso form; cited from earlier work.

Where only a bound is given, the exact number is not on record here.

Consider `Cc1cccc(C)c1C(=O)OC(C(=O)NC(C)(C)C)c1ccccc1` (stereo not drawn) [Compound 78, 2-(tert-butylamino)-2-oxo-1-phenylethyl 2,6-dimethylbenzoate], for which, in series [1], the “Residual substrate percentage, HLM” value is on record as greater than 99% and the “Hydrolytic stability in human liver microsomes (in words)” value is “excellent stability”. Besides, in series [2], the “Residual substrate percentage, MLM” value is greater than 99%. In series [3], the “Residual substrate percentage, buffer” value is listed as greater than 99%. For the same compound, the “Residual substrate percentage, plasma” value in series [4] is greater than 99%.

As for `CC(C)(C)NC(=O)C(OC(=O)c1ccccc1)c1ccccc1-c1ccccc1` (stereo not drawn) [Compound 58], in series [1], the “Residual substrate percentage, HLM” value was greater than 99% and the “Hydrolytic stability in human liver microsomes (in words)” value is listed as “stable”. Besides, in series [2], the “Residual substrate percentage, MLM” value is 2% and the “Hydrolysis of the ester group in mouse liver microsomes (in words)” value (“Hydrolysis of the ester group” below) is reported as “rapidly degraded”. Besides, the “Residual substrate percentage, buffer” value in series [3] was greater than 99%. The “Residual substrate percentage, plasma” value in series [4] is 90%.

gentamycin gave an Inhibition zone in series [5] of 22.3 ± 1.7 mm.

For the compound `Cc1cccc(C)c1C(=O)OC(C(=O)NC1CCCCC1)c1cccc(C(OC(=O)c2c(C)cccc2C)C(=O)NC2CCCCC2)c1` (stereo not drawn) [Compound 100], in series [5], the “Antibacterial activity (in words)” value is “moderate antibacterial activities” and the Inhibition zone is reported as 10.4 ± 1.3 mm. Besides, in series [1], the “Residual substrate percentage, HLM” value is greater than 99% and the “Hydrolytic stability in human liver microsomes (in words)” value is on record as “completely stable”. Further, in series [2], the “Residual substrate percentage, MLM” value stood at 95% and the “Hydrolysis of the ester group” value is “completely stable”. Further, in series [3], the “Residual substrate percentage, buffer” value was greater than 99%. In series [4], the “Residual substrate percentage, plasma” value came to 84%.

Turning to `Cc1cccc(Cl)c1C(=O)OCC(=O)NC(C)(C)C` [Compound 80], in series [1], the “Residual substrate percentage, HLM” value was greater than 99% and the “Hydrolytic stability in human liver microsomes (in words)” value is “excellent stability”. Moreover, in series [2], the “Residual substrate percentage, MLM” value is recorded as 97%. In addition, the “Residual substrate percentage, buffer” value in series [3] is recorded as 98%. In series [4], the “Residual substrate percentage, plasma” value is greater than 99%.

`COC(=O)c1c(C)cccc1C` [Compound 12, methyl 2,6-dimethylbenzoate, reference compound]: in series [1], the “Residual substrate percentage, HLM” value is on record as greater than 99% and the “Hydrolytic stability toward esterases (in words)” value was “stable toward esterases”. For the same compound, the “Hydrolytic stability toward esterases (in words)” value in series [1] (listed as methyl 2,6-dimethylbenzoate) is reported as “completely resistant to esterases”. Besides, the “Residual substrate percentage, MLM” value in series [2] stood at 77%. Moreover, the “Residual substrate percentage, buffer” value in series [3] is listed as greater than 99%.

Regarding `Cc1c(Br)cccc1C(=O)OCC(=O)NC(C)(C)C` [Compound 89], in series [1], the “Residual substrate percentage, HLM” value is less than 1% and the “Hydrolytic stability in human liver microsomes (in words)” value is “easy hydrolysis”. Moreover, in series [2], the “Residual substrate percentage, MLM” value was found to be 1% and the “Hydrolysis of the ester group” value was “the hydrolysis of the ester was complete”. The “Residual substrate percentage, buffer” value in series [3] is greater than 99%.

With `Cc1ccc(Br)c(C)c1C(=O)OCC(=O)NC(C)(C)C` [Compound 98], in series [1], the “Residual substrate percentage, HLM” value was greater than 99% and the “Hydrolytic stability in human liver microsomes (in words)” value is reported as “excellent stability”. Further, in series [2], the “Residual substrate percentage, MLM” value is greater than 99% and the “Hydrolysis of the ester group” value was “extremely stable”. The “Residual substrate percentage, buffer” value in series [3] is recorded as greater than 99%. In addition, the “Residual substrate percentage, plasma” value in series [4] is reported as greater than 99%.

For the compound `Cc1cccc(C)c1C(OC(=O)c1ccccc1)C(=O)NC(C)(C)C` (stereo not drawn) [Compound 57], in series [1], the “Residual substrate percentage, HLM” value was determined as 73% and the “Hydrolytic stability in human liver microsomes (in words)” value was “stable”. In series [2], the “Residual substrate percentage, MLM” value is recorded as 3% and the “Hydrolysis of the ester group” value is given as “rapidly degraded”. The “Residual substrate percentage, buffer” value in series [3] is greater than 99%. Also, in series [4], the “Residual substrate percentage, plasma” value is 90%.

Take `CC(C)C(OC(=O)C(C)(C)C)C(=O)NC(C)(C)C` (stereo not drawn) [Compound 73]: in series [1], the “Residual substrate percentage, HLM” value is 52% and the “Hydrolytic stability in human liver microsomes (in words)” value was “moderately more stable”. In series [2], the “Residual substrate percentage, MLM” value stood at 30% and the “Hydrolysis of the ester group” value is recorded as “easily hydrolyzed”. Besides, in series [3], the “Residual substrate percentage, buffer” value was greater than 99%.

As for `O=C(OC(C(=O)NC1CCCCC1)c1cccc(C(OC(=O)c2ccccc2)C(=O)NC2CCCCC2)c1)c1ccccc1` (stereo not drawn) [Compound 99, 1,3-phenylenebis(2-(cyclohexylamino)-2-oxoethane-1,1-diyl) dibenzoate, reference compound], in series [5], the “Antibacterial activity (in words)” value is on record as “moderate antibacterial activities” and the Inhibition zone is recorded as 10.2 ± 1.2 mm. In series [1], the “Residual substrate percentage, HLM” value came to 47% and the “Hydrolytic stability in human liver microsomes (in words)” value is listed as “hydrolytic stability increased”. In addition, the “Antibacterial activity against Pseudomonas aeruginosa (in words)” value in series [6] is “good antibacterial activity”. For the same compound, in series [2], the “Residual substrate percentage, MLM” value is 5% and the “Hydrolysis of the ester group” value is listed as “high instability”. Besides, the “Residual substrate percentage, buffer” value in series [3] is greater than 99%. Also, the “Residual substrate percentage, plasma” value in series [4] was found to be 93%.

Take `CC(C)(C)NC(=O)COC(=O)C(C)(C)Oc1ccc(Cl)cc1` [Compound 84]: in series [1], the “Residual substrate percentage, HLM” value worked out at 2% and the “Hydrolytic stability in human liver microsomes (in words)” value is listed as “instability”. For the same compound, in series [2], the “Residual substrate percentage, MLM” value is less than 1% and the “Hydrolysis of the ester group” value was “completely unstable”. Moreover, in series [3], the “Residual substrate percentage, buffer” value is reported as greater than 99%.

These data come from publication PMC9743426, “Expanding the Chemical Space of Drug-like Passerini Compounds: Can α-Acyloxy Carboxamides Be Considered Hard Drugs?” (ACS Medicinal Chemistry Letters, 2022).
